Experimental data: patent EP0326331B1, “Substituted quinolines and cinnolines” (Dow AgroSciences LLC, priority 1988, dated 1989)
Read-outs that look alike come from different tables or passages of the source.

Experiments:
Format in all cases: in vivo
[1] = tested on: Erysiphe graminis tritici (powdery mildew); assay: Test 1 greenhouse foliar spray screen, powdery mildew on wheat; details: for POWD MDEW: disease control rating, foliar spray on wheat, 400 ppm (+++ at 100 ppm)
[2] = tested on: Pyricularia oryzae (rice blast); assay: whole plant or invertebrate; details: for RICE BLAST: disease control rating, foliar spray on rice, 400 ppm (+++ at 100 ppm)
[3] = tested on: Puccinia recondita tritici (leaf rust); assay: Test 1 greenhouse foliar spray screen, leaf rust on wheat; details: for LEAF RUST: disease control rating, foliar spray on wheat, 400 ppm (+++ at 100 ppm)
[4] = tested on: Botrytis cinerea (gray mold); assay: Test 1 greenhouse foliar spray screen, gray mold on grape berries; details: for GRAY MOLD: disease control rating, spray on grape berries, 400 ppm (+++ at 100 ppm)
[5] = tested on: Pseudoperonospora cubensis (downy mildew); assay: Test 1 greenhouse foliar spray screen, downy mildew on squash; details: disease control rating, foliar spray on squash, 400 ppm (+++ at 100 ppm)
[6] = tested on: southern armyworm (Spodopetra eridania Cramer); assay: Mite/insect screen, SAW; details: Spodoptera eridania, percent mortality, read-out: SAW RESULTS %
Protocol: (§1) The compounds of Examples 1-295 were tested for miticidal and insecticidal activity in the following mite/insect screen.
(§2) Each test compound was formulated by dissolving the compound in acetone/alcohol (50:50) mixture containing 23 g of "TOXIMUL R" (sulfonate/nonionic emulsifier blend) and 13 g of "TOXIMUL S" (sulfonate/nonionic emulsifier blend) per liter. These mixtures were then diluted with water to give the indicated concentrations.
(§3) Other plants in the same treatment pot were left uninfested. The leaves were then sprayed with 5 ml of test solution using a DeVilbiss atomizing sprayer at 10 psi. Both surfaces of the leaves were covered until runoff, and then allowed to dry for one hour. Two uninfested leaves were then excised and placed into a Petri dish containing southern armyworm (Spodopetra eridania Cramer).
(§4) After standard exposure periods, percent mortality was evaluated. […]

[7] = tested on: Twospotted spider mites (Tetranychus urticae Koch); assay: Mite/insect screen, SM; details: Tetranychus urticae, percent mortality, read-out: SM RESULTS %
Protocol: as §1, §2, §3, §4

[8] = tested on: melon aphids (Aphis gossypii Glover); assay: Mite/insect screen, MA; details: Aphis gossypii, percent mortality, read-out: MA RESULTS %
Protocol: as §1, §2, §3, §4

corn rootworm = assay: Mite/insect screen, CRW; details: percent mortality, read-out: CRW RESULTS %
Protocol: as §1, §2, §4

[9] = foliar, rate 200 ppm, foliar spray on squash
[10] = foliar, rate 400 ppm, foliar spray on squash

CCc1cccc2c(NCCc3ccccc3)ccnc12 [Example 29, 8-ethyl-N-(2-phenylethyl)-4-quinolinamine]
POWD MDEW [1]: - (0-19% control at 400 ppm) | RICE BLAST [2]: + (20-89% control at 400 ppm) | LEAF RUST [3]: + (20-89% control at 400 ppm) | GRAY MOLD [4]: - (0-19% control at 400 ppm) | DOWN MDEW [5]: - (0-19% control at 400 ppm) | mortality at 200 ppm ([6]; SAW, SM & MA RATE 200 PPM): 0% | mortality at 200 ppm ([7]; SAW, SM & MA RATE 200 PPM): 0% | mortality at 200 ppm ([8]; SAW, SM & MA RATE 200 PPM): 0% | mortality at 12 ppm (corn rootworm; CRW RATE 12.00 PPM): 0%

Clc1ccc(CCNc2ccnc3cc(Cl)ccc23)cc1 [Example 37, 7-chloro-N-[2-(4-chlorophenyl)ethyl]-4-quinolinamine]
POWD MDEW [1]: + (20-89% control at 400 ppm) | RICE BLAST [2]: - (0-19% control at 400 ppm) | LEAF RUST [3]: + (20-89% control at 400 ppm) | GRAY MOLD [4]: - (0-19% control at 400 ppm) | DOWN MDEW [5]: + (20-89% control at 400 ppm) | mortality at 200 ppm ([6]; SAW, SM & MA RATE 200 PPM): 0% | mortality at 400 ppm ([6]; SAW, SM & MA RATE 400 PPM): 0% | mortality at 200 ppm ([7]; SAW, SM & MA RATE 200 PPM): 0% | mortality at 400 ppm ([7]; SAW, SM & MA RATE 400 PPM): 0% | mortality at 200 ppm ([8]; SAW, SM & MA RATE 200 PPM): 0% | mortality at 400 ppm ([8]; SAW, SM & MA RATE 400 PPM): 0% | mortality at 12 ppm (corn rootworm; CRW RATE 12.00 PPM): 0% | mortality at 24 ppm (corn rootworm; CRW RATE 24.00 PPM): 0%

Fc1cc(F)c2nccc(NCCc3ccc(-c4ccccc4)cc3)c2c1 [Example 40, 6,8-difluoro-N-(2-[1,1'-biphenyl]-4-ylethyl)-4-quinolinamine]
POWD MDEW [1]: - (0-19% control at 400 ppm) | RICE BLAST [2]: ++ (90-100% control at 400 ppm) | LEAF RUST [3]: +++ (90-100% control at 100 ppm) | GRAY MOLD [4]: - (0-19% control at 400 ppm) | DOWN MDEW [5]: + (20-89% control at 400 ppm) | mortality at 200 ppm ([6]; SAW, SM & MA RATE 200 PPM): 0% | mortality at 400 ppm ([6]; SAW, SM & MA RATE 400 PPM): 80% | mortality at 200 ppm ([7]; SAW, SM & MA RATE 200 PPM): 0% | mortality at 400 ppm ([7]; SAW, SM & MA RATE 400 PPM): 0% | mortality at 200 ppm ([8]; SAW, SM & MA RATE 200 PPM): 0% | mortality at 400 ppm ([8]; SAW, SM & MA RATE 400 PPM): 0% | mortality at 12 ppm (corn rootworm; CRW RATE 12.00 PPM): 0% | mortality at 24 ppm (corn rootworm; CRW RATE 24.00 PPM): 100%

FC(F)(F)c1ccc2c(NCCc3ccc(Cl)cc3)ccnc2c1 [Example 47, N-[2-(4-chlorophenyl)ethyl]-7-(trifluoromethyl)-4-quinolinamine]
POWD MDEW [1]: + (20-89% control at 400 ppm) | RICE BLAST [2]: - (0-19% control at 400 ppm) | LEAF RUST [3]: + (20-89% control at 400 ppm) | GRAY MOLD [4]: - (0-19% control at 400 ppm) | DOWN MDEW [5]: + (20-89% control at 400 ppm) | mortality at 200 ppm ([6]; SAW, SM & MA RATE 200 PPM): 0% | mortality at 400 ppm ([6]; SAW, SM & MA RATE 400 PPM): 0% | mortality at 200 ppm ([7]; SAW, SM & MA RATE 200 PPM): 0% | mortality at 400 ppm ([7]; SAW, SM & MA RATE 400 PPM): 0% | mortality at 200 ppm ([8]; SAW, SM & MA RATE 200 PPM): 0% | mortality at 400 ppm ([8]; SAW, SM & MA RATE 400 PPM): 0% | mortality at 12 ppm (corn rootworm; CRW RATE 12.00 PPM): 0% | mortality at 24 ppm (corn rootworm; CRW RATE 24.00 PPM): 0%

Cc1ccc(CCNc2ccnc3ccc(C)cc23)cc1 [Example 58, 6-methyl-N-[2-(4-methylphenyl)ethyl]-4-quinolinamine]
POWD MDEW [1]: - (0-19% control at 400 ppm) | RICE BLAST [2]: - (0-19% control at 400 ppm) | LEAF RUST [3]: + (20-89% control at 400 ppm) | GRAY MOLD [4]: - (0-19% control at 400 ppm) | DOWN MDEW [5]: +++ (90-100% control at 100 ppm) | mortality at 400 ppm ([6]; SAW, SM & MA RATE 400 PPM): 0% | mortality at 400 ppm ([7]; SAW, SM & MA RATE 400 PPM): 0% | mortality at 400 ppm ([8]; SAW, SM & MA RATE 400 PPM): 0% | mortality at 24 ppm (corn rootworm; CRW RATE 24.00 PPM): 0%

Clc1ccc(CCNc2ccnc3cc(Cl)cc(Cl)c23)cc1 [Example 59, 5,7-dichloro-N-[2-(4-chlorophenyl)ethyl]-4-quinolinamine]
POWD MDEW [1]: + (20-89% control at 400 ppm) | RICE BLAST [2]: + (20-89% control at 400 ppm) | LEAF RUST [3]: - (0-19% control at 400 ppm) | GRAY MOLD [4]: - (0-19% control at 400 ppm) | DOWN MDEW [5]: - (0-19% control at 400 ppm) | mortality at 200 ppm ([6]; SAW, SM & MA RATE 200 PPM): 0% | mortality at 400 ppm ([6]; SAW, SM & MA RATE 400 PPM): 0% | mortality at 200 ppm ([7]; SAW, SM & MA RATE 200 PPM): 0% | mortality at 400 ppm ([7]; SAW, SM & MA RATE 400 PPM): 0% | mortality at 200 ppm ([8]; SAW, SM & MA RATE 200 PPM): 0% | mortality at 400 ppm ([8]; SAW, SM & MA RATE 400 PPM): 0% | mortality at 12 ppm (corn rootworm; CRW RATE 12.00 PPM): 0% | mortality at 24 ppm (corn rootworm; CRW RATE 24.00 PPM): 0%

Clc1ccc2c(NCCc3cccc(Oc4ccccc4)c3)ccnc2c1 [Example 60, 7-chloro-N-[2-(3-phenoxyphenyl)ethyl]-4-quinolinamine]
POWD MDEW [1]: ++ (90-100% control at 400 ppm) | RICE BLAST [2]: +++ (90-100% control at 100 ppm) | LEAF RUST [3]: ++ (90-100% control at 400 ppm) | GRAY MOLD [4]: - (0-19% control at 400 ppm) | DOWN MDEW [5]: +++ (90-100% control at 100 ppm) | mortality at 200 ppm ([6]; SAW, SM & MA RATE 200 PPM): 0% | mortality at 400 ppm ([6]; SAW, SM & MA RATE 400 PPM): 0% | mortality at 200 ppm ([7]; SAW, SM & MA RATE 200 PPM): 0% | mortality at 400 ppm ([7]; SAW, SM & MA RATE 400 PPM): 0% | mortality at 200 ppm ([8]; SAW, SM & MA RATE 200 PPM): 0% | mortality at 400 ppm ([8]; SAW, SM & MA RATE 400 PPM): 0% | mortality at 12 ppm (corn rootworm; CRW RATE 12.00 PPM): 0% | mortality at 24 ppm (corn rootworm; CRW RATE 24.00 PPM): 0%

Cc1cccc2c(NCCc3ccc(Cl)cc3)ccnc12 [Example 61, 8-methyl-N-[2-(4-chlorophenyl)ethyl]-4-quinolinamine]
POWD MDEW [1]: - (0-19% control at 400 ppm) | RICE BLAST [2]: ++ (90-100% control at 400 ppm) | LEAF RUST [3]: ++ (90-100% control at 400 ppm) | GRAY MOLD [4]: - (0-19% control at 400 ppm) | DOWN MDEW [5]: +++ (90-100% control at 100 ppm) | mortality at 200 ppm ([6]; SAW, SM & MA RATE 200 PPM): 0% | mortality at 400 ppm ([6]; SAW, SM & MA RATE 400 PPM): 0% | mortality at 200 ppm ([7]; SAW, SM & MA RATE 200 PPM): 0% | mortality at 400 ppm ([7]; SAW, SM & MA RATE 400 PPM): 0% | mortality at 200 ppm ([8]; SAW, SM & MA RATE 200 PPM): 0% | mortality at 400 ppm ([8]; SAW, SM & MA RATE 400 PPM): 0% | mortality at 12 ppm (corn rootworm; CRW RATE 12.00 PPM): 0% | mortality at 24 ppm (corn rootworm; CRW RATE 24.00 PPM): 0%

[O-][S+](CCc1ccccc1)c1ccnc2c(F)cccc12 (stereo not drawn) [Example 264, 8-fluoro-4-[(2-phenylethyl)sulfinyl]quinoline]
pest or weed control at 400 ppm ([1]; Blumeria graminis, foliar, Test 1, foliar spray on wheat, disease control rating at 400 ppm / 100 ppm, read-out: POWD MDEW): 0 to 19% | pest or weed control at 400 ppm ([2]; Pyricularia oryzae, foliar, read-out: RICE BLAST, Test 1, foliar spray on rice, disease control rating at 400 ppm / 100 ppm): 0 to 19% | pest or weed control at 400 ppm ([3]; Puccinia recondita, foliar, Test 1, foliar spray on wheat, disease control rating at 400 ppm / 100 ppm): 20 to 89% | pest or weed control at 400 ppm ([4]; Botrytis cinerea, foliar, Test 1, spray on grape berries, disease control rating at 400 ppm / 100 ppm): 0 to 19% | mortality at 200 ppm [6, 9]: 0% | mortality at 400 ppm [6, 10]: 0% | mortality at 200 ppm [7, 9]: 0% | mortality at 400 ppm [7, 10]: 0% | mortality at 200 ppm [8, 9]: 0% | mortality at 400 ppm [8, 10]: 0% | mortality at 12 ppm (corn rootworm; CRW rate 12.00 ppm): 0% | mortality at 24 ppm (corn rootworm; CRW rate 24.00 ppm): 0%
